Structures can show the parent of a compound that is named as a salt.
Key:
[1] = in vivo; cited from earlier work
[2] = Thermodynamic stability of polymorphic forms; assay type: physicochemical
Experimental: Crystalline eprosartan acid exists in two different polymorphic forms—the α (alpha) and β (beta) forms. The a polymorphic form of eprosartan acid has the highest thermodynamic stability of up to 200° C. Although the Examples use the α form of eprosartan acid, the β form of eprosartan acid can also be used in the same way.

| SMILES | variable and mean absolute bioavailability [1] | highest thermodynamic stability of up to [2] |
| --- | --- | --- |
| CCCCc1ncc(/C=C(\Cc2cccs2)C(=O)O)n1Cc1ccc(C(=O)O)cc1 [eprosartan mesylate] | approximately 13% | – |
| CCCCc1ncc(/C=C(\Cc2cccs2)C(=O)O)n1Cc1ccc(C(=O)O)cc1 [a polymorphic form of eprosartan acid] | – | up to 200 °C |
